Here are results for three compounds from US8455487B2, “Methods of controlling insects” (Syngenta Participations AG, priority 2007, dated 2013).

Assay [1] deals with pollen beetles. Kind of assay: B.3 field trial, control of pollen beetle in oilseed rape, extremely high pest pressure (vs lambda cyhalothrin and thiacloprid). The class given is in vivo, Meligethes. The following applies: foliar. The procedure:
A third field trial (randomized complete block) was carried out on oilseed rape, which had reached crop stage BBCH 55 (new growth with 30 to 60 cm height; flower buds, open flowers, some small seed pods formed) and which was under attack by actively foraging pollen beetles (adult beetles: 10 beetle/flower cluster). The active ingredient pymetrozine ((E)-4,5-dihydro-6-methyl-4-(3-pyridylmethyleneamino)-1,2,4-triazin-3(2H)-one; formulated as Plenum 50% WG) was tested at rates of 50, 100 and 150 g ai/ha and compared to the activity of lambda cyhalothrin (7.5 g ai/ha) and thiacloprid (72 g ai/ha). Foliar application of the compounds under test was effected using a conventional spray boom and a volume of 400 L/ha. The degree of pest control was assessed pre-spray, and compared to that observed 2 hours, 1, 3 and 5 days after application.

Assay [2] concerns pyrethroid resistant Pollen Beetle. The assay is described as follows: B.4 field trial, control of pyrethroid resistant pollen beetle in oilseed rape. The class given is in vivo, Meligethes. The procedure:
A further field trial (randomized complete block, 30 racemes per plot) was carried out on oilseed rape, which had reached crop stage BBCH 57-59 (individual flower buds—secondary inflorescence—visible but still closed) and which was under attack by actively foraging pollen beetles (adult beetles: average of 30 adult beetles/plot). The active ingredient pymetrozine ((E)-4,5-dihydro-6-methyl-4-(3-pyridylmethylene-amino)-1,2,4-triazin-3(2H)-one; formulated as Plenum 50% WG) was tested at rates of 50, 100 and 150 g ai/ha and compared to the activity of lambda cyhalothrin (7.5 g ai/ha) and thiacloprid (72 g ai/ha). Foliar application of the compounds under test was effected using a conventional spray boom and a volume of 500 L/ha. The degree of pest control was assessed pre-spray, and compared to that observed 1 and 3 days after application.

For assay [3] the test system is unchanged. Kind of assay: B.5 three field trials, control of pyrethroid resistant pollen beetle in oilseed rape. It is filed as in vivo, Meligethes. The following applies: foliar. The method, then:
Three further field trials (randomized complete block, 25 plants per plot) were carried out on oilseed rape, which had reached crop stage BBCH 57-63 and which was under attack by actively foraging pollen beetles (adult beetles: average of 27 adult beetles/plot). The active ingredient pymetrozine ((E)-4,5-dihydro-6-methyl-4-(3-pyridylmethylene-amino)-1,2,4-triazin-3(2H)-one; formulated as Plenum 50% WG) was tested at rates of 75, 100 and 150 g ai/ha and compared to the activity of lambda cyhalothrin (7.5 g ai/ha) and thiacloprid (72 g ai/ha). Foliar application of the compounds under test was effected using a conventional spray boom and a volume of 300 L/ha. The degree of pest control was assessed pre-spray, and compared to that observed 1, 4 and 7 days after application.

In assay [4] the test system is pollen beetles. Kind of assay: B.2 unreplicated field test, control of pollen beetle in winter oilseed rape (vs lambda-cyhalothrin). The class given is in vivo, Meligethes. The following applies: for % Control 1DAA: foliar. The method, then:
An unreplicated field test was carried out on Winter oilseed rape, (crop stage BBCH 55) and which was under attack by actively foraging pollen beetles (adult beetles: 2.32 beetle/flower cluster). The active ingredient pymetrozine ((E)-4,5-dihydro-6-methyl-4-(3-pyridylmethyleneamino)-1,2,4-triazin-3(2H)-one; formulated as Chess 50% WG) was tested at rates of 12.5, 50 and 200 g ai/ha and compared to the activity of lambda-cyhalothrin (formulated as Karate Zeon 10CS) at 5 g ai/ha. Foliar application of the compounds under test was effected using a conventional spray boom. The degree of pest infestation was assessed pre-spray (average of 2.3 adult pollen beetles per flower cluster in the check plot) and compared to that observed 1day after application.

Assay [5] concerns pollen beetles. Kind of assay: B.1 field trial, control of pollen beetle in winter oilseed rape (vs Lavender oil and Quassan 30). It is filed as in vivo, Meligethes. The following applies: foliar. The method, then: A randomized complete block field trial was carried out on winter oilseed rape, which had reached crop stage BBCH 55 (flower buds, open flowers, some small seed pods formed) and which was under attack by actively foraging pollen beetles (adult beetles: 1 beetle/flower cluster). The active ingredient pymetrozine ((E)-4,5-dihydro-6-methyl-4-(3-pyridylmethyleneamino)-1,2,4-triazin-3(2H)-one; formulated as Plenum 50% WG) was tested at rates of 50 and 150 g ai/ha and compared to the activity of Lavender oil (at rates of 1000 g ai/ha and 2500 g ai/ha) and Quassia amara extract (Quassan 30; applied at rates of 30, 90 and 270 g ai/ha). Foliar application of the compounds under test was effected using a conventional spray boom and a volume of 500 L/ha. The degree of pest control was assessed pre-spray, and compared to that observed 1, 3 and 5 days after application.

Assay [6] deals with insects from the Staphylinidae family. The following applies: Sechser et al. 2002 J. Pest Science 75:72-77; cited from earlier work.
Assay [7] deals with insects from the Coccinellidae family. The following applies: Sechser et al. 2002 J. Pest Science 75:72-77; cited from earlier work.
Assay [8] relates to insects from the Carabidae family. The following applies: Sechser et al. 2002 J. Pest Science 75:72-77; cited from earlier work.

Each structure is given as a SMILES string. Bounds are passed on as bounds.

As to `N#C/N=C1\SCCN1Cc1ccc(Cl)nc1` [Thiacloprid], the “% Control” value worked out at 67% with pollen beetles [1] (72 g ai/ha, 1 DAA); 92% in the assay with pollen beetles [1] (72 g ai/ha, 3 DAA); 0% in the assay with pollen beetles [1] (72 g ai/ha, 5 DAA); 39.9% in the assay with pollen beetles [1] (72 g ai/ha, 2 hrs aa); 63% in assay [2] (72 g ai/ha, foliar, 1 DAA); 94% in assay [2] (72 g ai/ha, foliar, 3 DAA). Also, the “Mean % Control” value in assay [3] (72 g ai/ha, 1 DAA) came to 74.7%; in assay [3] (72 g ai/ha, 4 DAA), 92.5%; in assay [3] (72 g ai/ha, 7 DAA) it was 78.3%.

With `CC1(C)[C@H](C(=O)O[C@H](C#N)c2cccc(Oc3ccccc3)c2)[C@@H]1/C=C(\Cl)C(F)(F)F` (racemic) [Lambda cyhalothrin], in the assay on pollen beetles [4] (5 g ai/ha, 1DAA), the “% Control 1DAA” value was determined as 100%. Also, the “% Control” value is 75% with pollen beetles [1] (7.5 g ai/ha, 1 DAA); 92% with pollen beetles [1] (7.5 g ai/ha, 3 DAA); 23% in the assay on pollen beetles [1] (7.5 g ai/ha, 5 DAA); 63.4% in the assay with pollen beetles [1] (7.5 g ai/ha, 2 hrs aa); 73% in assay [2] (7.5 g ai/ha, foliar, 1 DAA); 60% in assay [2] (7.5 g ai/ha, foliar, 3 DAA). Also, the “level of control (in words)” value in assay [2] (recommended field rate (7.5 g ai/ha)) is listed as “low level of control”. The “Mean % Control” value in assay [3] (7.5 g ai/ha, 1 DAA) stood at 33.0%; in assay [3] (7.5 g ai/ha, 4 DAA) it was 20.0%; in assay [3] (7.5 g ai/ha, 7 DAA), 18.1%.

Regarding `CC1=NNC(=O)N(N=Cc2cccnc2)C1` [Pymetrozine, 4,5-dihydro-6-methyl-4-(3-pyridylmethyleneamino)-1,2,4-triazin-3(2H)-one], the “Percentage Control” value with pollen beetles [5] (50 g ai/ha, 1 DAA) is 90%; with pollen beetles [5] (50 g ai/ha, 3 DAA), 98%; with pollen beetles [5] (50 g ai/ha, 5DAA) it was 99%; in the assay on pollen beetles [5] (150 g ai/ha, 1 DAA) it was 86%; in the assay with pollen beetles [5] (150 g ai/ha, 3 DAA) it was 92%; with pollen beetles [5] (150 g ai/ha, 5DAA), 95%. Further, the “% Control 1DAA” value in the assay with pollen beetles [4] (12.5 g ai/ha, 1DAA) turned out to be 90%; in the assay on pollen beetles [4] (50 g ai/ha, 1 DAA), 98%; with pollen beetles [4] (200 g ai/ha, 1DAA), 100%. For the same compound, in the assay on pollen beetles [4] (at all rates (12.5, 50, 200 g ai/ha), 1DAA), the “control of Meligethes (in words)” value is reported as “excellent control”. In addition, the “effect on insects (in words)” value in assay [6], in assay [7] and in assay [8] was “no effect” in each case. Further, the “% Control” value in the assay with pollen beetles [1] (50 g ai/ha, 1 DAA) came to 19%; in the assay with pollen beetles [1] (50 g ai/ha, 3 DAA), 44%; in the assay on pollen beetles [1] (50 g ai/ha, 5DAA) it was 0%; in the assay with pollen beetles [1] (50 g ai/ha, 2 hrs aa), 37.3%; with pollen beetles [1] (100 g ai/ha, 1 DAA) it was 61%; in the assay on pollen beetles [1] (100 g ai/ha, 3 DAA), 77%. Moreover, the “% Control” value with pollen beetles [1] (100 g ai/ha, 5 DAA) was 0%; with pollen beetles [1] (100 g ai/ha, 2 hrs aa), 39.9%; with pollen beetles [1] (150 g ai/ha, 1 DAA), 61%; in the assay with pollen beetles [1] (150 g ai/ha, 3 DAA) it was 84%; in the assay with pollen beetles [1] (150 g ai/ha, 5DAA), 0%; in the assay on pollen beetles [1] (150 g ai/ha, 2 hrs aa), 42.5%. Moreover, the “% Control” value in assay [2] (3DAA, rates 50, 100 and 150 g ai/ha) is listed as greater than 90%; in assay [2] (50 g ai/ha, foliar, 1 DAA) it was 60%; in assay [2] (50 g ai/ha, foliar, 3 DAA), 96%; in assay [2] (100 g ai/ha, foliar, 1 DAA), 62%; in assay [2] (100 g ai/ha, foliar, 3 DAA), 97%; in assay [2] (150 g ai/ha, foliar, 1 DAA) it was 78%. The “% Control” value in assay [2] (150 g ai/ha, foliar, 3 DAA) is on record as 96%. The “Mean % Control” value in assay [3] (75 g ai/ha, 1 DAA) worked out at 89.9%; in assay [3] (75 g ai/ha, 4 DAA) it was 72.4%; in assay [3] (75 g ai/ha, 7 DAA), 92.8%; in assay [3] (100 g ai/ha, 1 DAA), 87.2%; in assay [3] (100 g ai/ha, 4 DAA) it was 72.9%; in assay [3] (100 g ai/ha, 7 DAA), 92.8%. In addition, the “Mean % Control” value was found to be 95.2% in assay [3] (150 g ai/ha, 1 DAA); 77.4% in assay [3] (150 g ai/ha, 4 DAA); 91.3% in assay [3] (150 g ai/ha, 7 DAA).
